Assays:
[1] = test system: barnyardgrass (Echinochloa crus-galli); assay: Test B flooded paddy test, visual rating 0-100; conditions: Flood, 250 g ai/ha, applied to paddy water, rated after 13 to 15 days
[2] = test system: foxtail, green (green foxtail, Setaria viridis); assay: Test A preemergence, visual injury rating 0-100; type: in vivo
[3] = test system: kochia (Kochia scoparia); assay: Test A preemergence, visual injury rating 0-100; type: in vivo
[4] = test system: ryegrass, Italian (Italian ryegrass, Lolium multiflorum); assay: Test A preemergence, visual injury rating 0-100; type: in vivo
[5] = test system: ragweed (common ragweed, Ambrosia elatior); assay: Test A preemergence, visual injury rating 0-100; type: in vivo
[6] = test system: pigweed (Amaranthus retroflexus); assay: Test A preemergence, visual injury rating 0-100; type: in vivo
[7] = test system: rice (Oryza sativa); assay: Test B flooded paddy test, visual rating 0-100 (0 no effect, 100 complete control); conditions: Flood, 250 g ai/ha, applied to paddy water, rated after 13 to 15 days
[8] = test system: barnyardgrass (Echinochloa crus-galli); assay: Test A preemergence, visual injury rating 0-100 (0 no effect, 100 complete control); type: in vivo; conditions: for Barnyardgrass plant response rating (0 to 100 scale): 125 g ai/ha; for Barnyardgrass plant response rating: 500 g ai/ha, 0 to 100 scale
[9] = test system: galium (catchweed bedstraw, Galium aparine); assay: Test A postemergence, visual injury rating 0-100; type: in vivo; conditions: 0 to 100 scale
[10] = test system: foxtail, green (green foxtail, Setaria viridis); assay: Test A postemergence, visual injury rating 0-100; type: in vivo; conditions: 0 to 100 scale
[11] = test system: wheat (Triticum aestivum); assay: Test A postemergence, visual injury rating 0-100; type: in vivo; conditions: 0 to 100 scale
[12] = test system: kochia (Kochia scoparia); assay: Test A postemergence, visual injury rating 0-100; type: in vivo; conditions: 0 to 100 scale
[13] = test system: blackgrass (Alopecurus myosuroides); assay: Test A postemergence, visual injury rating 0-100; type: in vivo; conditions: 0 to 100 scale
[14] = test system: barnyardgrass (Echinochloa crus-galli); assay: Test A postemergence, visual injury rating 0-100; type: in vivo; conditions: 0 to 100 scale
[15] = test system: ryegrass, Italian (Italian ryegrass, Lolium multiflorum); assay: Test A postemergence, visual injury rating 0-100; type: in vivo; conditions: 0 to 100 scale
[16] = test system: corn (Zea mays); assay: Test A postemergence, visual injury rating 0-100; type: in vivo; conditions: 0 to 100 scale
[17] = test system: ragweed (common ragweed, Ambrosia elatior); assay: Test A postemergence, visual injury rating 0-100; type: in vivo; conditions: 0 to 100 scale
[18] = test system: pigweed (Amaranthus retroflexus); assay: Test A postemergence, visual injury rating 0-100; type: in vivo; conditions: 0 to 100 scale
[19] = test system: ducksalad (Heteranthera limosa); assay: Test B flooded paddy test, visual rating 0-100; conditions: Flood, 250 g ai/ha, applied to paddy water, rated after 13 to 15 days

SMILES	Barnyardgrass plant response rating (0 to 100 scale) [1]	Foxtail, Green plant response rating (0 to 100 scale) ([2]; 125 g ai/ha)	Kochia plant response rating (0 to 100 scale) ([3]; 125 g ai/ha)	Ryegrass, Italian plant response rating (0 to 100 scale) ([4]; 125 g ai/ha)	Ragweed plant response rating (0 to 100 scale) ([5]; 125 g ai/ha)	Pigweed plant response rating (0 to 100 scale) ([6]; 125 g ai/ha)	Rice plant response rating (0 to 100 scale) [7]	Barnyardgrass plant response rating (0 to 100 scale) [8]	Barnyardgrass plant response rating [8]	Galium plant response rating ([9]; 125 g ai/ha)	Galium plant response rating ([9]; 500 g ai/ha)	Foxtail, Green plant response rating ([10]; 125 g ai/ha)	Foxtail, Green plant response rating ([10]; 500 g ai/ha)	Wheat plant response rating ([11]; 125 g ai/ha)	Wheat plant response rating ([11]; 500 g ai/ha)	Kochia plant response rating ([12]; 125 g ai/ha)	Kochia plant response rating ([12]; 500 g ai/ha)	Blackgrass plant response rating ([13]; 125 g ai/ha)	Blackgrass plant response rating ([13]; 500 g ai/ha)	Barnyardgrass plant response rating ([14]; 125 g ai/ha)	other results
CC1=[N+]([O-])C(C(=O)Nc2ccccc2C(F)(F)F)C(c2ccc(C(F)(F)F)cc2)C1 (racemic) [Compound 33]	20	50	0	0	70	0	0	90	90	70	70	0	70	0	0	0	0	0	0	0	Foxtail, Green plant response rating (0 to 100 scale) ([2]; 500 g ai/ha): 100; Kochia plant response rating (0 to 100 scale) ([3]; 500 g ai/ha): 70; Ryegrass, Italian plant response rating (0 to 100 scale) ([4]; 500 g ai/ha): 20; Ragweed plant response rating (0 to 100 scale) ([5]; 500 g ai/ha): 80; Pigweed plant response rating (0 to 100 scale) ([6]; 500 g ai/ha): 50; Barnyardgrass plant response rating ([14]; 500 g ai/ha): 40; Ryegrass, Italian plant response rating ([15]; 125 g ai/ha): 0; Ryegrass, Italian plant response rating ([15]; 500 g ai/ha): 0; Corn plant response rating ([16]; 125 g ai/ha): 10; Corn plant response rating ([16]; 500 g ai/ha): 30; Ragweed plant response rating ([17]; 125 g ai/ha): 0; Ragweed plant response rating ([17]; 500 g ai/ha): 40; Pigweed plant response rating ([18]; 125 g ai/ha): 0; Pigweed plant response rating ([18]; 500 g ai/ha): 20; Ducksalad plant response rating (0 to 100 scale) [19]: 0
CC1=[N+]([O-])C(C(=O)Nc2cccnc2F)C(c2ccc(C(F)(F)F)cc2)C1 (racemic) [Compound 41]	20	80	0	10	80	90	0	90	100	60	70	40	80	0	30	0	20	30	50	30	Foxtail, Green plant response rating (0 to 100 scale) ([2]; 500 g ai/ha): 100; Kochia plant response rating (0 to 100 scale) ([3]; 500 g ai/ha): 90; Ryegrass, Italian plant response rating (0 to 100 scale) ([4]; 500 g ai/ha): 70; Ragweed plant response rating (0 to 100 scale) ([5]; 500 g ai/ha): 100; Pigweed plant response rating (0 to 100 scale) ([6]; 500 g ai/ha): 90; Barnyardgrass plant response rating ([14]; 500 g ai/ha): 90; Ryegrass, Italian plant response rating ([15]; 125 g ai/ha): 0; Ryegrass, Italian plant response rating ([15]; 500 g ai/ha): 70; Corn plant response rating ([16]; 125 g ai/ha): 0; Corn plant response rating ([16]; 500 g ai/ha): 0; Ragweed plant response rating ([17]; 125 g ai/ha): 0; Ragweed plant response rating ([17]; 500 g ai/ha): 40; Pigweed plant response rating ([18]; 125 g ai/ha): 30; Pigweed plant response rating ([18]; 500 g ai/ha): 70; Ducksalad plant response rating (0 to 100 scale) [19]: 80
CC1=[N+]([O-])C(C(=O)Nc2cccc(F)n2)C(c2ccc(C(F)(F)F)cc2)C1 (racemic) [Compound 47]	40	90	40	0	90	80	0	80	100	50	30	50	90	0	0	0	0	0	0	50	Foxtail, Green plant response rating (0 to 100 scale) ([2]; 500 g ai/ha): 100; Kochia plant response rating (0 to 100 scale) ([3]; 500 g ai/ha): 90; Ryegrass, Italian plant response rating (0 to 100 scale) ([4]; 500 g ai/ha): 20; Ragweed plant response rating (0 to 100 scale) ([5]; 500 g ai/ha): 100; Pigweed plant response rating (0 to 100 scale) ([6]; 500 g ai/ha): 100; Barnyardgrass plant response rating ([14]; 500 g ai/ha): 90; Ryegrass, Italian plant response rating ([15]; 125 g ai/ha): 0; Ryegrass, Italian plant response rating ([15]; 500 g ai/ha): 50; Corn plant response rating ([16]; 125 g ai/ha): 0; Corn plant response rating ([16]; 500 g ai/ha): 20; Ragweed plant response rating ([17]; 125 g ai/ha): 0; Ragweed plant response rating ([17]; 500 g ai/ha): 40; Pigweed plant response rating ([18]; 125 g ai/ha): 0; Pigweed plant response rating ([18]; 500 g ai/ha): 20; Ducksalad plant response rating (0 to 100 scale) [19]: 75
CC1=[N+]([O-])[C@@H](C(=O)Nc2ccccc2F)[C@H](c2ccc(C(F)(F)F)cc2)C1 (relative stereo) [Compound 26, trans-N-(2-fluorophenyl)-3,4-dihydro-5-methyl-3-[4-(trifluoromethyl)phenyl]-2H-pyrrole-2-carboxamide 1-oxide]	60	100	50	20	80	70	0	80	100	70	80	50	90	0	10	0	10	20	60	60	Foxtail, Green plant response rating ([2]; 500 g ai/ha, 0 to 100 scale): 100; Kochia plant response rating ([3]; 500 g ai/ha, 0 to 100 scale): 90; Ryegrass, Italian plant response rating ([4]; 500 g ai/ha, 0 to 100 scale): 70; Ragweed plant response rating ([5]; 500 g ai/ha, 0 to 100 scale): 90; Pigweed plant response rating ([6]; 500 g ai/ha, 0 to 100 scale): 90; Barnyardgrass plant response rating ([14]; 500 g ai/ha): 90; Ryegrass, Italian plant response rating ([15]; 125 g ai/ha): 0; Ryegrass, Italian plant response rating ([15]; 500 g ai/ha): 20; Corn plant response rating ([16]; 125 g ai/ha): 0; Corn plant response rating ([16]; 500 g ai/ha): 0; Ragweed plant response rating ([17]; 125 g ai/ha): 20; Ragweed plant response rating ([17]; 500 g ai/ha): 60; Pigweed plant response rating ([18]; 125 g ai/ha): 30; Pigweed plant response rating ([18]; 500 g ai/ha): 80; Ducksalad plant response rating (0 to 100 scale) [19]: 100

Reference: patent publication US11498899B2, “Nitrone herbicides” (FMC Corporation, priority 2016, dated 2022)
